Where two headings read alike, the source gives them in different places. Square brackets hold non-standard residues; d marks the D form. Peptide text beside a SMILES is read from it. 1Nal = N[C@@H](Cc1cccc2ccccc12)C(=O)O; 2Nal = N[C@@H](Cc1ccc2ccccc2c1)C(=O)O; d1Nal = N[C@H](Cc1cccc2ccccc12)C(=O)O; d2Nal = N[C@H](Cc1ccc2ccccc2c1)C(=O)O; Bta = N[C@@H](Cc1csc2ccccc12)C(=O)O; dBta = N[C@H](Cc1csc2ccccc12)C(=O)O
Legend:
rat KOR [1] = biological target: T1, rat KOR (Rattus norvegicus, UniProt P34975); assay: radioligand equilibrium competition binding, KOR; details: CHO cell membranes, [3H]diprenorphine; mean ± SEM, at least three experiments
T1 construct: expressed in transfected cells
Procedure: (§1) Opioid receptor affinities were determined by equilibrium radioligand binding assays as previously described with membranes from Chinese hamster ovary (CHO) cells stably expressing rat KOR, rat MOR, or mouse DOR using the radioligands [^3H]diprenorphine, [^3H][D-Ala^2,N-MePhe^4,glyol]enkephalin (DAMGO), and [^3H][D-Pen^2,D-Pen^5]enkephalin (DPDPE), respectively. Following determination of IC50 values by nonlinear regression using Prism software (GraphPad Software Co., La Jolla, CA, USA), Ki values were calculated using the Cheng–Prusoff equation [57]. The results are presented as the mean ± SEM from at least three separate experiments, each performed in triplicate.

C57BL/6J mice [2] = assay: 55 °C warm-water tail-withdrawal assay, antinociception after i.c.v. administration; format: in vivo, mouse; set-up: key: ~: Maximum antinociception not achieved, precluding calculation of an ED50 value
Procedure: For intracerebroventricular administration, the macrocyclic peptides were dissolved in dimethyl sulfoxide (DMSO), followed by addition of sterile saline (0.9%) so that the final vehicle was 50% DMSO and 50% saline, and the i.c.v. injections were performed as described previously. This concentration of DMSO was not observed to have antinociceptive or behavioral effects in previous use. All solutions for animal administration were prepared fresh daily.
The 55 °C warm-water tail-withdrawal assay was performed in mice as previously described, with the latency of the mouse to withdraw its tail from the water taken as the endpoint (a cut-off time of 15 s was used in this assay). Antinociception was calculated according to the following formula: % antinociception = 100 × (test latency − control latency)/(15 − control latency). Tail-withdrawal data points are the means of 8–16 mice, unless otherwise indicated, with SEM shown by error bars.
All dose–response lines were analyzed by regression, and ED50 (effective dose producing 50% antinociception) values and 95% C.I. were determined using individual data points from graded dose–-response curves with Prism 8.0 software (GraphPad, La Jolla, CA, USA). Percent antinociception was used to determine within-group effects and to allow comparison to baseline latency in tail-withdrawal experiments. The statistical significance of differences between ED50 values was determined by evaluation of the ED50 value shift via nonlinear regression modeling with Prism software. Significant differences in behavioral data were analyzed by ANOVA (one-way or two-way with repeated measures (RM), as appropriate). Significant results were further analyzed with Sidak’s, Tukey’s, or Dunnett’s multiple comparison post hoc tests, as appropriate. Data for conditioned place preference experiments were analyzed by one-way or two-way RM ANOVA, with analyses examining the main effect of conditioned place preference phase (e.g., pre- or post-conditioning) and the interaction of drug pretreatment and/or exposure. All data are presented as mean ± SEM, with significance set at p < 0.05.

rat MOR [3] = biological target: T2, rat MOR (Rattus norvegicus, UniProt P33535); assay: radioligand equilibrium competition binding, MOR; details: CHO cell membranes, [3H]DAMGO; mean ± SEM, at least three experiments
T2 construct: expressed in transfected cells
Procedure: as §1

mouse DOR [4] = biological target: T3, mouse DOR (Mus musculus, UniProt P32300); assay: radioligand equilibrium competition binding, DOR; details: CHO cell membranes, [3H]DPDPE; mean ± SEM, at least three experiments (D-Nal(1′)^4 n = 2)
T3 construct: expressed in transfected cells
Procedure: as §1

[5] = metabolism by mouse liver microsomes; format: in vitro ADME; details: read-out: t1/2 in mouse liver microsomes
Procedure: The metabolism of the macrocyclic tetrapeptides by mouse liver microsomes was evaluated as previously described, with the amount of peptide remaining determined by LC-MS/MS [55] using [D-MeAla^2]CJ-15,208 [53] as the internal standard.

C57BL/6J mice [6] = details: mouse, in vivo
C57BL/6J mice [7] = assay: acute antinociceptive tolerance (dosing at 0 and 8 h); details: i.c.v.; for Naïve ED50 (95% C.I.): naïve mice
Procedure: The degree of tolerance was calculated from the shift in ED50 value from the singly to repeatedly treated condition.

C57BL/6J mice [8] = assay: respiration rate, CLAMS/Oxymax; format: in vivo, mouse; details: i.c.v.; [Nal(2′)^4]CJ-15,208 100 nmol, morphine 30 nmol; 80 min
Procedure: (§2) Respiration rates (in breaths per minute) and animal locomotive activity (as ambulation) were assessed using the Oxymax/CLAMS system (Columbus Instruments, Columbus, OH, USA) as described previously. Mice were habituated to their individual sealed housing chambers for 60 min before testing. […] Pressure monitoring within the sealed chambers measured frequency of respiration. Infrared beams located in the floor measured locomotion as number of beam breaks. Respiration and locomotive data were averaged over 20 min periods for 80 min post-injection of the test compound. Data are presented as % vehicle response ± SEM; ambulation, or breaths per minute.

C57BL/6J mice [9] = assay: spontaneous locomotor activity (ambulation), CLAMS/Oxymax; format: in vivo, mouse; details: i.c.v.; [Nal(2′)^4]CJ-15,208 100 nmol, morphine 30 nmol; 80 min
Procedure: as §2

KOR = biological target: T4, KOR (Mus musculus, UniProt P33534); assay: antagonism of U50,488 antinociception, tail-withdrawal assay; format: in vivo; details: peptide i.c.v. (3-300 nmol, Figure 4) 140 min before U50,488 10 mg/kg i.p.
T4 construct: endogenous in cells; host or cells: living adult male C57BL/6J mice
Procedure: ; at this time, the antinociceptive activity of the analogs had dissipated. Antinociception produced by the established opioid agonists was then measured 40 min after their administration. The dose response of KOR or DOR antagonism produced by selected analogs was further determined by evaluating antinociception after administration of one of three additional i.c.v. doses of the analog.

mouse DOR [10] = biological target: T3, mouse DOR; details: parent peptides; mean ± SEM; cited from earlier work
MOR, KOR, DOR = assay: opioid receptor involvement in antinociception (KO mice / selective antagonist pretreatment), tail-withdrawal assay; format: in vivo, mouse; details: dose producing maximum antinociception, i.c.v., KOR KO mice or β-FNA, nor-BNI, naltrindole pretreatment
Procedure: Except for the Bta^4 analog, contributions of the MOR and KOR were assessed in knockout (KO) mice for those receptors; DOR contribution to the antinociceptive activity of the analogs was assessed by pretreating mice with naltrindole (20 mg/kg, i.p., −20 min) prior to administration of analog (Figure 3).
Assessment of DOR involvement in the agonist activity of each macrocyclic peptide was performed by pretreating additional wild-type mice with a single dose of naltrindole (20 mg/kg, i.p.) 20 min in advance of administration of the macrocyclic peptide.

rat MOR [11] = biological target: T2, rat MOR; details: parent peptides; mean ± SEM; cited from earlier work
rat KOR [12] = biological target: T1, rat KOR; details: parent peptides; mean ± SEM; cited from earlier work
[13] = antinociception at peak response
[14] = acute tolerance, dosing at 0 and 8 h

Compound | Ki (rat KOR [1]) [nM] | ED50 (and 95% C.I.) i.c.v. (C57BL/6J mice [2]; [13]) | Ki (rat MOR [3]) [nM] | Ki (mouse DOR [4]) [nM] | further results
O=C1N[C@@H](Cc2ccccc2)C(=O)N2CCC[C@@H]2C(=O)N[C@@H](Cc2ccccc2)C(=O)N[C@H]1Cc1csc2ccccc12 [Bta^4, [Bta^4]CJ-15,208] (cyclo(F[dP]F[Bta])) | 51.9 ± 4.8 | 13.2 (9.62–18.2) nmol | 90.3 ± 38.5 | 1600 ± 360 | half-life [5]: 28 min
O=C1N[C@H](Cc2csc3ccccc23)C(=O)N[C@@H](Cc2ccccc2)C(=O)N2CCC[C@@H]2C(=O)N[C@H]1Cc1ccccc1 [D-Bta^4, [D-Bta^4]CJ-15,208] (cyclo(F[dP]F[dBta])) | 4.29 ± 0.38 | – | 84.2 ± 11.8 | > 10000 | –
O=C1N[C@H](Cc2cccc3ccccc23)C(=O)N[C@@H](Cc2ccccc2)C(=O)N2CCC[C@@H]2C(=O)N[C@H]1Cc1ccccc1 [D-Nal(1′)^4, [D-Nal(1′)^4]CJ-15,208] (cyclo(F[dP]F[d1Nal])) | 21.4 ± 0.7 | – | 101 ± 25 | > 10000 | –
O=C1N[C@H](Cc2ccc3ccccc3c2)C(=O)N[C@@H](Cc2ccccc2)C(=O)N2CCC[C@@H]2C(=O)N[C@H]1Cc1ccccc1 [D-Nal(2′)^4, [D-Nal(2′)^4]CJ-15,208] (cyclo(F[dP]F[d2Nal])) | 12.3 ± 1.8 | 31.2 (22.5–41.9) nmol | 63.8 ± 5 | > 10000 | –
CN1CC[C@]23c4c5ccc(O)c4O[C@H]2[C@@H](O)C=C[C@H]3[C@H]1C5 [Morphine, reference compound] | – | 2.35 (1.13–5.03) nmol | – | – | conditioned place preference or aversion (C57BL/6J mice [6]; C57BL/6J): significant (p = 0.03) place preference; Naïve ED50 (95% C.I.) (C57BL/6J mice [7]): 2.35 (1.13–5.03) nmol; effect on respiration rate vs. vehicle (C57BL/6J mice [8]): produced significant, time-dependent respiratory depression; effect on ambulation vs. vehicle (C57BL/6J mice [9]): significantly increased ambulation
O=C1N[C@@H](Cc2ccccc2)C(=O)N2CCC[C@@H]2C(=O)N[C@@H](Cc2ccccc2)C(=O)N[C@H]1Cc1cccc2ccccc12 [Nal(1′)^4, [Nal(1′)^4]CJ-15,208] (cyclo(F[dP]F[1Nal])) | 103 ± 6 | 0.24 (0.19–0.31) nmol | 110 ± 16 | 1920 ± 120 | –
O=C1N[C@@H](Cc2ccccc2)C(=O)N2CCC[C@@H]2C(=O)N[C@@H](Cc2ccccc2)C(=O)N[C@H]1Cc1ccc2ccccc2c1 [Nal(2′)^4, [Nal(2′)^4]CJ-15,208] (cyclo(F[dP]F[2Nal])) | 358 ± 137 | 19.5 (15.8–24.0) nmol | 583 ± 59 | 3300 ± 360 | conditioned place preference or aversion (C57BL/6J mice [6]): no significant preference or aversion; Fold-Shift, Naïve ED50 vs. Second ED50 (C57BL/6J mice [7]; [14]): 0.37; leftward shift in the dose–response curve of the second dose (C57BL/6J mice [7]; [14]): 2.7 fold; Naïve ED50 (95% C.I.) (C57BL/6J mice [7]): 19.5 (15.8–24.0) nmol; effect on respiration rate vs. vehicle (C57BL/6J mice [8]): did not significantly impair breathing; effect on ambulation vs. vehicle (C57BL/6J mice [9]): not significant; half-life [5]: > 60 min
cyclo(F[dP]FW) [CJ-15,208] | – | 1.74 (0.62–4.82) nmol | – | – | antagonism of U50,488 antinociception (KOR antagonism) (KOR): displayed significant KOR antagonism; Ki (mouse DOR [10]): 1720 ± 350 nM; Receptors Involved in antinociception (MOR, KOR, DOR): KOR, MOR; Ki (rat MOR [11]): 451 ± 114 nM; Ki (rat KOR [12]): 27.4 ± 4.6 nM
cyclo(F[dP]F[dW]) [[D-Trp]CJ-15,208] | – | – | – | – | antagonism of U50,488 antinociception (KOR antagonism) (KOR): significantly antagonized U50,488-induced antinociception; Ki (mouse DOR [10]): 4190 ± 860 nM; ED50 (and 95% C.I.) i.c.v. (C57BL/6J mice [2]; symbol where no ED50 could be calculated): ~; Ki (rat MOR [11]): 259 ± 29 nM; Ki (rat KOR [12]): 21.8 ± 4.8 nM
